Reference: PubChem BioAssay AID248 (DTP/NCI, 2004)
Several values for one entry are separate records, joined by “and”; a condition that tells them apart may be missing. Identical values can stand only once. Toxic doses and inconclusive results are not listed. No stated cut-off is given here; in the data, active means T/C of 150% or more; inactive means T/C below 125%.

Tested on: L1210 leukemia ip in BDF1 mice, survival T/C
Test: NCI In Vivo Anticancer Drug Screen. Data for tumor model L1210 Leukemia (intraperitoneal) in B6D2F1 (BDF1) mice
Conditions: endpoint: mean survival time, higher = longer survival
Outline: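 Survival endpoint. Drug-treated group vs vehicle group, expressed as T divided by C. Tumor passaged by transplantation.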

[1] = dose: 50.0 mg/kg/injection, schedule: Q01DX009 (ip), vehicle: Klucel (hydroxypropylcellulose) (HPC)
[2] = dose: 100.0 mg/kg/injection, schedule: Q01DX009 (ip), vehicle: Klucel (hydroxypropylcellulose) (HPC)
[3] = dose: 100.0 mg/kg/injection, schedule: Q04DX003 (ip), vehicle: saline with Tween-80
[4] = dose: 200.0 mg/kg/injection, schedule: Q04DX003 (ip), vehicle: saline with Tween-80
[5] = dose: 100.0 mg/kg/injection, schedule: Q04DX002 (ip), vehicle: Klucel (hydroxypropylcellulose) (HPC)
[6] = dose: 200.0 mg/kg/injection, schedule: Q04DX002 (ip), vehicle: Klucel (hydroxypropylcellulose) (HPC)
[7] = dose: 400.0 mg/kg/injection, schedule: Q04DX002 (ip), vehicle: Klucel (hydroxypropylcellulose) (HPC)
[8] = dose: 100.0 mg/kg/injection, schedule: Q04DX003 (ip), vehicle: Klucel (hydroxypropylcellulose) (HPC)
[9] = dose: 200.0 mg/kg/injection, schedule: Q04DX003 (ip), vehicle: Klucel (hydroxypropylcellulose) (HPC)
[10] = dose: 50.0 mg/kg/injection, schedule: Q01DX001 (ip), vehicle: saline
[11] = dose: 100.0 mg/kg/injection, schedule: Q01DX001 (ip), vehicle: saline
[12] = dose: 200.0 mg/kg/injection, schedule: Q01DX001 (ip), vehicle: saline
[13] = dose: 400.0 mg/kg/injection, schedule: Q01DX001 (ip), vehicle: saline
[14] = dose: 50.0 mg/kg/injection, schedule: Q04DX003 (ip), vehicle: Klucel (hydroxypropylcellulose) (HPC)
[15] = dose: 100.0 mg/kg/injection, schedule: Q01DX009 (ip), vehicle: saline with Tween-80
[16] = dose: 200.0 mg/kg/injection, schedule: Q01DX009 (ip), vehicle: saline with Tween-80
[17] = dose: 400.0 mg/kg/injection, schedule: Q01DX009 (ip), vehicle: saline with Tween-80
[18] = dose: 200.0 mg/kg/injection, schedule: Q01DX009 (ip), vehicle: Klucel (hydroxypropylcellulose) (HPC)
[19] = dose: 25.0 mg/kg/injection, schedule: Q04DX003 (ip), vehicle: Klucel (hydroxypropylcellulose) (HPC)

Measured: T/C

OCCC1CC1=C1CC1 (stereo not drawn)
inactive: [1] 101 % of control | [2] 98 % of control

COC(=O)c1ccccc1NC(=O)C(Cl)Cl
inactive: dose: 100.0 mg/kg/injection, schedule: Q01DX009 (ip), vehicle: other 106 % of control | dose: 200.0 mg/kg/injection, schedule: Q01DX009 (ip), vehicle: other 93 % of control | dose: 400.0 mg/kg/injection, schedule: Q01DX009 (ip), vehicle: other 98 % of control

O=C(c1ccccc1)C(Nc1ccccn1)c1ccccc1 (stereo not drawn)
inactive: dose: 75.0 mg/kg/injection, schedule: Q01DX001 (ip), vehicle: carboxymethylcellulose (CMC) 96 % of control | dose: 150.0 mg/kg/injection, schedule: Q01DX001 (ip), vehicle: carboxymethylcellulose (CMC) 94 % of control | dose: 300.0 mg/kg/injection, schedule: Q01DX001 (ip), vehicle: carboxymethylcellulose (CMC) 94 % of control

Cc1ccc(S(=O)(=O)Nc2ccccc2-c2nc3ccc(C)cc3c(=O)o2)cc1
inactive: [3] 88 % of control | [4] 94 % of control | dose: 400.0 mg/kg/injection, schedule: Q04DX003 (ip), vehicle: saline with Tween-80 116 % of control

Cc1c(C)c(C)c(CNNC(=S)Nc2ccc(S(=O)(=O)N3CCCCC3)cc2)c(C)c1C
inactive: [5] 104 % of control | [6] 92 % of control | [7] 95 % of control

O=[N+]([O-])c1cccc(S/N=C/c2ccccc2)c1
inactive: [8] 100 % of control | [9] 95 % of control | dose: 400.0 mg/kg/injection, schedule: Q04DX003 (ip), vehicle: Klucel (hydroxypropylcellulose) (HPC) 105 % of control

COc1ccc(-c2oc3ccccc3c(=O)c2O)cc1
inactive: [10] 104 % of control | [11] 101 % of control | [12] 106 % of control | [13] 98 % of control

CCOC(=O)C1(C(=O)OCC)CCC(O)N1C(=O)c1ccccc1[N+](=O)[O-] (stereo not drawn)
inactive: [14] 97 % of control | [8] 91 % of control | [9] 91 % of control

O=C(n1ccnc1)C(F)(F)F
inactive: dose: 100.0 mg/kg/injection, schedule: Q01DX001 (ip), vehicle: saline sonified 105 % of control | dose: 100.0 mg/kg/injection, schedule: Q04DX003 (ip), vehicle: saline 109 % of control | dose: 200.0 mg/kg/injection, schedule: Q01DX001 (ip), vehicle: saline sonified 108 % of control | dose: 200.0 mg/kg/injection, schedule: Q04DX003 (ip), vehicle: saline 91 % of control | dose: 400.0 mg/kg/injection, schedule: Q01DX001 (ip), vehicle: saline sonified 101 % of control | dose: 400.0 mg/kg/injection, schedule: Q04DX003 (ip), vehicle: saline 97 % of control

O=C(O)c1c2c(nc3ccccc13)CCC(C(=O)O)C2 (stereo not drawn)
inactive: [5] 95 % of control | [6] 95 % of control | [7] 103 % of control

CCCC(CC(=O)O)OC (stereo not drawn)
inactive: [11] 103 % of control | [12] 110 % of control | [13] 110 % of control

Cc1noc2c1CCCC2
inactive: dose: 100.0 mg/kg/injection, schedule: Q04DX003 (ip), vehicle: carboxymethylcellulose (CMC) 103 % of control | dose: 200.0 mg/kg/injection, schedule: Q04DX003 (ip), vehicle: carboxymethylcellulose (CMC) 106 % of control

CN(C)CCNc1ccccn1
inactive: dose: 75.0 mg/kg/injection, schedule: Q01DX001 (ip), vehicle: saline 98 % of control | dose: 150.0 mg/kg/injection, schedule: Q01DX001 (ip), vehicle: saline 104 % of control

O=c1ccccc(Br)c1O
inactive: dose: 100.0 mg/kg/injection, schedule: Q04DX003 (ip), vehicle: acetone 100 % of control | dose: 200.0 mg/kg/injection, schedule: Q04DX003 (ip), vehicle: acetone 98 % of control

O=S(=O)(O)C(O)c1cccc2ccccc12 (stereo not drawn)
inactive: [15] 105 % of control | [16] 105 % of control | [17] 115 % of control

OCCc1ccccc1O
inactive: [10] 94 % of control | [11] 94 % of control | [12] 100 % of control | [13] 100 % of control

COc1cc(OC)c(NC(=O)Nc2ccc([N+](=O)[O-])cc2OC)cc1Cl
inactive: [2] 101 % of control | [18] 95 % of control | dose: 400.0 mg/kg/injection, schedule: Q01DX009 (ip), vehicle: Klucel (hydroxypropylcellulose) (HPC) 97 % of control

NC1CCC(CC23CC4CC(CC(C4)C2)C3)CC1 (stereo not drawn)
inactive: [19] 110 % of control | [14] 102 % of control | [8] 94 % of control and 101 % of control

COc1ccc([N+](=O)[O-])cc1NC(=O)Nc1nccs1
inactive: [1] 105 % of control | [2] 105 % of control | [18] 101 % of control

Cc1ccc(Cl)cc1NC(=O)Nc1ccccc1F
inactive: dose: 25.0 mg/kg/injection, schedule: Q04DX003 (ip), vehicle: saline with Tween-80 94 % of control | dose: 50.0 mg/kg/injection, schedule: Q04DX003 (ip), vehicle: saline with Tween-80 86 % of control and 91 % of control | dose: 100.0 mg/kg/injection, schedule: Q01DX001 (ip), vehicle: saline with Tween-80 92 % of control | [15] 103 % of control and 105 % of control | dose: 100.0 mg/kg/injection, schedule: Q04DX002 (ip), vehicle: saline with Tween-80 98 % of control and 92 % of control | [3] 104 % of control and 90 % of control | dose: 200.0 mg/kg/injection, schedule: Q01DX001 (ip), vehicle: saline with Tween-80 92 % of control | [16] 98 % of control and 90 % of control | dose: 200.0 mg/kg/injection, schedule: Q04DX002 (ip), vehicle: saline with Tween-80 95 % of control and 92 % of control | dose: 400.0 mg/kg/injection, schedule: Q01DX001 (ip), vehicle: saline with Tween-80 89 % of control | [17] 94 % of control and 92 % of control | dose: 400.0 mg/kg/injection, schedule: Q04DX002 (ip), vehicle: saline with Tween-80 90 % of control and 92 % of control

Oc1cccc(Nc2ccccc2)c1
inactive: [5] 106 % of control | [6] 95 % of control | [7] 95 % of control

O=C(COc1ccc(Cl)c(Cl)c1)NCCc1cc[n+](Cc2ccc(S(=O)(=O)F)cc2)cc1
inactive: [3] 102 % of control | [4] 86 % of control

C=CCOCC(O)CN(C)CCCCCCCCCCCC (stereo not drawn)
inactive: dose: 6.0 mg/kg/injection, schedule: Q04DX003 (ip), vehicle: Klucel (hydroxypropylcellulose) (HPC) 98 % of control | dose: 12.0 mg/kg/injection, schedule: Q04DX003 (ip), vehicle: Klucel (hydroxypropylcellulose) (HPC) 96 % of control | dose: 25.0 mg/kg/injection, schedule: Q01DX009 (ip), vehicle: Klucel (hydroxypropylcellulose) (HPC) 109 % of control | [19] 93 % of control and 96 % of control | [1] 109 % of control | [8] 96 % of control

S=c1ncn(-c2ccccc2)[nH]1
inactive: dose: 50.0 mg/kg/injection, schedule: Q01DX009 (ip), vehicle: saline with Tween-80 103 % of control | [15] 95 % of control | [16] 95 % of control

COCC(=O)c1ccccc1
inactive: [10] 96 % of control | [11] 98 % of control | [12] 98 % of control | [13] 93 % of control
